The numbers were not newly measured in US20070083941A1, “Rat TRPM7 polynucleotide and encoded protein” (Wyeth, priority 2005, published 2007), which cites them from elsewhere.

As usually defined, the pIC50 is the IC50 on a negative log10 scale, so that one unit is a factor of ten.

pIC50: −log10 of the molar value.

This data set deals with TRPM7 (Homo sapiens, UniProt Q96QT4). Conditions: high concentrations of intracellular MgATP and Mg^2+; basal activity of TRPM7; read-out: IC50 of inhibition of TRPM7.
Sequence of TRPM7 (Q96QT4 whole entry, species assumed): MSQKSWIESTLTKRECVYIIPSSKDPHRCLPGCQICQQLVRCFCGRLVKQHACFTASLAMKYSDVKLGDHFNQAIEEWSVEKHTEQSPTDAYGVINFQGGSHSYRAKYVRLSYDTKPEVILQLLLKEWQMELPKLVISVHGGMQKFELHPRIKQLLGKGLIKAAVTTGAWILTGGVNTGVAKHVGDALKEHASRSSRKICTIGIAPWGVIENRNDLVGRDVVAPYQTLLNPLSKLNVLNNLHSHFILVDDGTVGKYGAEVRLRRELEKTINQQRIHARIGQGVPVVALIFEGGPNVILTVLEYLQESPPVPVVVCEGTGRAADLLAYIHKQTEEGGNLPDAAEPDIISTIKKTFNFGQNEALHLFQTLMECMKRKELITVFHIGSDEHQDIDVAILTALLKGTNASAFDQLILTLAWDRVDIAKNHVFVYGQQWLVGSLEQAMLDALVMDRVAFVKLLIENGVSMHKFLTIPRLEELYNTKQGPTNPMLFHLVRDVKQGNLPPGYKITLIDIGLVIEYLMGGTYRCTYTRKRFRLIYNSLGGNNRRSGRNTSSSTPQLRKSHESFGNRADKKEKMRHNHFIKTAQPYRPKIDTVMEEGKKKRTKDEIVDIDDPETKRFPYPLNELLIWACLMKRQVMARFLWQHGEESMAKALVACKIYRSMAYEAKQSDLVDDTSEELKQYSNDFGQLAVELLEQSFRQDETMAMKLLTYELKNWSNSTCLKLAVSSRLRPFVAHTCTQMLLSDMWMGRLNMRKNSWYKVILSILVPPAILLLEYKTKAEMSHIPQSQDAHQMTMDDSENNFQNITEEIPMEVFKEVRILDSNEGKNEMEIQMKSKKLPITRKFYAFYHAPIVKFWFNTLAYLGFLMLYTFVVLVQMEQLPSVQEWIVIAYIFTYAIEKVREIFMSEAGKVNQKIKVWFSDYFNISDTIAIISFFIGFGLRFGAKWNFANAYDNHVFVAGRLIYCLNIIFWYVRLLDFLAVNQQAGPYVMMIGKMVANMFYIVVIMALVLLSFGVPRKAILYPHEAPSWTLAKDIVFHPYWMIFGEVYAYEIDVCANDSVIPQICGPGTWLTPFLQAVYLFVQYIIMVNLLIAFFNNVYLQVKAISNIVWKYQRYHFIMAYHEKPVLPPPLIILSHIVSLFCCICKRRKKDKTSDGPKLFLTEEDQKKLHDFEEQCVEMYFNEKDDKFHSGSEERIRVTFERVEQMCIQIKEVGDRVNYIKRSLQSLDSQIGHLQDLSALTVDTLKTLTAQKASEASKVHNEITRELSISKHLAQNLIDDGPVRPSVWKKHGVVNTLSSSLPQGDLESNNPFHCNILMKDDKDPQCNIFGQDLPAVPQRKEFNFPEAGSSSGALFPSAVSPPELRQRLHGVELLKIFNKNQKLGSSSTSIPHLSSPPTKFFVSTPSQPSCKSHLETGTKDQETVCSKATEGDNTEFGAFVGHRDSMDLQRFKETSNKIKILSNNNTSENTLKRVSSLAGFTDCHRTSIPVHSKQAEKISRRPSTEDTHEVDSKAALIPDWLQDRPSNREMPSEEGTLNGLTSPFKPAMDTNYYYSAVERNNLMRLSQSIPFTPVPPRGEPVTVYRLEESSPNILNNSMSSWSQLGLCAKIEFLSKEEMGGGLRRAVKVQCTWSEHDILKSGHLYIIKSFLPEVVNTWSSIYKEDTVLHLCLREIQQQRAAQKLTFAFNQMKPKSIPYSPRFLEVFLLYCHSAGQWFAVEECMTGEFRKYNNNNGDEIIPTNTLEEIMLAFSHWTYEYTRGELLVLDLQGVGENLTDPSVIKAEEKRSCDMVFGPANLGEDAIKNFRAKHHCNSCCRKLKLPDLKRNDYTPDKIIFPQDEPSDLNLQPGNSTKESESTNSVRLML

In the case of `Nc1ncnc2c1ncn2[C@@H]1O[C@H](COP(=O)(O)OP(=O)(O)OP(=O)(O)O)[C@@H](O)[C@H]1O` [MgATP], the pIC50 is approximately 3.22.
Take `[Mg+2]` [Mg^2+]: the pIC50 is approximately 3.22.
